# Experimental data reported in US20240423207A1, “PICOLINAMIDE COMPOUNDS WITH FUNGICIDAL ACTIVITY” (CORTEVA AGRISCIENCE LLC, priority 2014, published 2024).
# Like-named read-outs stand apart in the source and are kept apart here.
# How the values were obtained:
# [1] = test system: Cercospora beticola; experiment: Leaf Spot of Sugar Beets (CERCBE) fungicidal activity on sugar beet plants; type: in vivo; details: 24 h, 1 Day Protectant, read-out: CERCBE 1 DP disease control
# Protocol: Technical grades of materials were dissolved in acetone, which were then mixed with nine volumes of water (H2O) containing 110 ppm Triton X-100. The fungicide solutions were applied onto wheat seedlings using an automated booth sprayer to run-off. All sprayed plants were allowed to air dry prior to further handling. All fungicides were evaluated using the aforementioned method for their activity vs. all target diseases, unless stated otherwise. Wheat leaf blotch and brown rust activity were also evaluated using track spray applications, in which case the fungicides were formulated as EC formulations, containing 0.1% Trycol 5941 in the spray solutions. Wheat plants (variety Yuma) were grown from seed in a greenhouse in 50% mineral soil/50% soil-less Metro mix until the first leaf was fully emerged, with 7-10 seedlings per pot. These plants were inoculated with an aqueous spore suspension of Septoria tritici either prior to or after fungicide treatments. After inoculation the plants were kept in 100% relative humidity (one day in a dark dew chamber followed by two to three days in a lighted dew chamber at 20° C.) to permit spores to germinate and infect the leaf. The plants were then transferred to a greenhouse set at 20° C. for disease to develop. When disease symptoms were fully expressed on the 1st leaves of untreated plants, infection levels were assessed on a scale of 0 to 100 percent disease severity. Percent disease control was calculated using the ratio of disease severity on treated plants relative to untreated plants. Example E: Evaluation of Fungicidal Activity: Leaf Spot of Sugar Beets (Cercospora beticola; Bayer code CERCBE) Sugar beet plants (variety HH88) were grown in soil-less Metro mix and trimmed regularly to maintain a uniform plant size prior to test. Plants were inoculated with a spore suspension 24 h after fungicide treatments. Inoculated plants were kept in a dew chamber at 22° C. for 48 h then incubated in a greenhouse set at 24° C. under a clear plastic hood with bottom ventilation until disease symptoms were fully expressed. Fungicide formulation, application and disease assessment on the sprayed leaves followed the procedures as described in the Example A.
# [2] = test system: Puccinia triticina; Synonym: Puccinia recondita f sp. tritici; experiment: Wheat Brown Rust (PUCCRT) fungicidal activity on wheat seedlings; type: in vivo; details: Low Volume, 121.5 g/H
# Procedure, shortened: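 Yuma wheat seedlings (first leaf emerged) were sprayed to run-off with compound in acetone/water 1:9 (110 ppm Triton X-100), and P. triticina spores were inoculated before or after treatment. Plants were kept overnight in a 22 °C dark dew room at 100% RH, then moved to a 24 °C greenhouse; % control was based on first-leaf severity (0–100%) versus untreated plants.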
# [3] = 24 h, 1 Day Protectant, read-out: PUCCRT 1DP disease control
# [4] = 72 h, 3 Day Curative, read-out: PUCCRT 3DC disease control
Compound,pest or weed control at 100 ppm [1],"pest or weed control at 121.5 g/ha [2, 3]","pest or weed control at 121.5 g/ha [2, 4]"
"COc1ccnc(C(=O)N[C@@H](C)C(=O)O[C@@H](C)C(c2ccccc2)c2ccccc2)c1OC(C)=O [Cmpd 139, (S)-(S)-1,1-diphenylpropan-2-yl 2-(3-acetoxy-4-methoxypicolinamido)propanoate]",> 80%,> 80%,> 80%
COc1ccnc(C(=O)N[C@@H](C)C(=O)O[C@@H](C)C(c2ccccc2)c2ccccc2)c1OC(=O)C(C)C [Cmpd 140],> 80%,> 80%,< 80%
"COc1ccnc(C(=O)N[C@@H](C)C(=O)O[C@@H](C)C(c2ccccc2)c2ccccc2)c1OCOC(C)=O [Cmpd 141, (S)-(S)-1,1-diphenylpropan-2-yl 2-(3-(acetoxymethoxy)-4-methoxypicolinamido)propanoate]",> 80%,> 80%,> 80%
"COc1ccnc(C(=O)N[C@@H](C)C(=O)O[C@@H](C)C(c2ccccc2)c2ccccc2)c1OCOC(=O)C(C)C [Cmpd 142, (S)-(S)-1,1-diphenylpropan-2-yl 2-(3-((isobutyryloxy)methoxy)-4-methoxypicolinamido)propanoate]",> 80%,> 80%,> 80%
COc1ccnc(C(=O)N[C@@H](C)C(=O)O[C@@H](C)C(c2ccc(F)cc2)c2ccc(F)cc2)c1OC(C)=O [Cmpd 145],> 80%,> 80%,> 80%
COc1ccnc(C(=O)N[C@@H](C)C(=O)O[C@@H](C)C(c2ccc(F)cc2)c2ccc(F)cc2)c1OCOC(C)=O [Cmpd 146],> 80%,> 80%,> 80%
COc1ccnc(C(=O)N[C@@H](C)C(=O)O[C@@H](C)C(c2ccc(F)cc2F)c2ccc(F)cc2F)c1OCOC(C)=O [Cmpd 148],> 80%,> 80%,> 80%
COc1ccnc(C(=O)N[C@@H](C)C(=O)O[C@@H](C)C(c2ccc(F)cc2F)c2ccc(F)cc2F)c1OC(C)=O [Cmpd 150],> 80%,> 80%,> 80%
COc1ccnc(C(=O)N[C@@H](C)C(=O)O[C@@H](C)C(c2ccc(Cl)cc2)c2ccc(Cl)cc2)c1OC(C)=O [Cmpd 174],> 80%,> 80%,< 80%
COc1ccnc(C(=O)N[C@@H](C)C(=O)O[C@@H](C)C(c2ccc(Cl)cc2)c2ccc(Cl)cc2)c1OCOC(C)=O [Cmpd 176],> 80%,> 80%,> 80%
